In assay [1] the test system is focal cerebral ischemic injury in rats. Kind of assay: Focal cerebral ischemic injury in rats (transient MCA occlusion, TTC-stained infarct). It is filed as in vivo, Sprague-Dawley rats. The conditions noted are these: 2-h MCA occlusion/22-h reperfusion, oral, two times at 5 min and 4 h, cilostazol 20 mg/kg, probucol 30 mg/kg, vs vehicle, FIG. 4. As to the method:
Male Sprague-Dawley rats weighing 280-320 g were anesthetized with pentobarbital sodium (20 mg/kg, i.p.), and placed on a heating pad (Homeothermic Blanket System, Harvard Apparatus, South Natick, Mass.) to maintain a constant rectal temperature (37±0.5° C.). Systemic arterial blood pressure, arterial blood gas and pH were measured before, during ischemia and after 22-h reperfusion. Focal cerebral ischemia was induced by transient occlusion of the left middle cerebral artery (MCA) as previously described (Stroke 1989; 20:84-91). Surgical nylon suture thread (3-0 in size) with the round tip was advanced from the external carotid artery into the lumen of the internal carotid artery until blocking the flow of the MCA. Two hours after MCA occlusion, reperfusion was allowed by withdrawal of the suture thread until the tip cleared the internal carotid artery. […] The TTC-stained brain slices were photographed using CCD video camera and the size of an infarct was calculated with image analysis system (Image-Pro Plus, Media Cybernetics, Maryland) and expressed as the percentage of infarcted tissue in reference to the ipsilateral hemisphere. […] Data were expressed as mean±S.E.M. The comparison of the results of hemispheric infarct areas between groups is analyzed by repeated measures analysis of variance followed by Tukey's multiple comparison tests as a post hoc comparison. […]

Assay [2] relates to Otsuka Long-Evans Tokushima Fatty (OLETF) male rats. The experiment in a line: Urinary excretion of glucose and insulin resistance in OLETF rats on high-fat diet. It is filed as in vivo. The conditions noted are these: eleventh week; for urinary glucose, mean±SD: 0.3% Cilostazol and/or 0.5% Probucol in diet, control 186±171 mg/dl; for effect on plasma glucose: 0.3% Cilostazol or 0.5% Probucol in diet, control 162±16 mg/dl. As to the method:
Otsuka Long-Evans Tokushima Fatty (OLETF) male rats (6 week olds) were divided randomly into the following four groups depending on the body weights by stratified randomized method (using SAS Software, R8.1): Immediately after the randomized grouping, high-fat diet (commercially available feed (CRF-1, manufactured by Oriental Yeast Industries Co., LTD.) supplemented with cholesterol (1.25%), sodium cholate (0.5%) and cacao butter (15%)) was administered to the mice in each group in order to promote the onset of renal disease. In the test-material administered groups, the high-fat diet combined with the test material was administered to each mouse immediately after grouping. In the eleventh week after initiation of feeding, the mice were bled from the tail vein without anesthetization, and the plasma glucose and insulin level in plasma were measured. Separately, the urine was taken, and the urinary glucose was measured. Glucose was measured by an enzymatic method using a commercially available kit for measuring glucose, and the insulin was measured by a commercially available ELISA kit. 1) In order to confirm the synergistic effects of the combination of Cilostazol and Probucol, two-way ANOVA was carried out between the control group and the Cilostazol-administered group as well as between the Probucol-administered group and two agents-administered group, and thereby the interaction was observed. 2) The effects in Cilostazol- and Probucol-administered group were compared with the effects in control group by Dunnett's test. Moreover, the effects in Cilostazol- and Probucol-administered group were compared with the effects in Cilostazol+Probucol-administered group by Dunnett's test. All tests were done by two-sided test with significant level of 5%, by means of SAS Software (SAS Institute Japan, R8.1). The data were shown by mean±SD (n).

In assay [3] the test system is atherosclerotic lesion in low-density lipoprotein receptor-knockout mice. Kind of assay: Atherosclerosis in low-density lipoprotein receptor-knockout mice fed high cholesterol. The conditions noted are these: LDLR-KO mice; for area of atherosclerotic lesion (ratio of Sudan IV stained area to whole aorta), mean±SD: high-fat diet 8 weeks, control 10.1±4.7%; for inhibition of atherosclerotic lesion (in words): Cilostazol 0.3%, Probucol 0.1 and 0.5%, alone or combined, FIG. 2 and FIG. 3. It is filed as in vivo. As to the method: Low-density lipoprotein receptor-knockout (LDLR-KO) mice (J. Clin. Invest. 1993; 92: 883-893) (male, 9 weeks old, which was prepared by and kept in Otsuka Pharmaceutical Co, Ltd.) were used. The animals were treated by grouping in the following six groups. Prior to start the experiment, the body weight of the animals and total cholesterol were measured, and based on both data, the animals were divided into six groups in random by stratified randomization method (SAS Software, R8.1). The doses of Probucol and Cilostazol were determined based on the reports (Horm. Metab. Res. 2001; 33: 472-479, and J. Pharmacol. Exp. Ther. 2005; 313: 502-509), respectively. In control group, mice were administered with a high-fat diet [i.e. a conventional feed (CRF-1, manufactured by Oriental Yeast Industries Co., LTD.) supplemented with cholesterol (1.25%), sodium cholate (0.5%) and cacao butter (15%)] and in the test material-administered group, the mice were administered with the high-fat diet combined with Cilostazol (0.3%) and/or Probucol (0.1% or 0.5%). The high-fat diet was administered to the LDLR-KO mice (since 9 weeks old) in order to induce atherosclerosis (in control group). In the test material-administration groups, the high-fat diet mixed with test material was administered to the mice (since 9 weeks old). The mice in both groups were dissected at eighth weeks after starting the administration of the diet. The atherosclerotic lesion was evaluated by picking up whole of the aorta under ether anesthesia, exposing the inner face of aorta and staining the fats with Sudan IV. The area of the atherosclerotic lesion (containing fats/lipids) in whole of the aorta was counted by image analysis of stained area and whole area of the aorta. 1) In order to confirm the synergistic effects of the combination of Cilostazol and Probucol, two-way ANOVA was carried out between the control group and the Cilostazol-administered group as well as between the Probucol-administered group and two agents-administered group, and thereby the interaction was observed. 2) The effects in Cilostazol- and Probucol-administered group were compared with the effects in control group by Dunnett's test. Moreover, the effects in Cilostazol- and Probucol-administered group were compared with the effects in Cilostazol+Probucol-administered group by Dunnett's test. All tests were done by two-sided test with significant level of 5%, by means of SAS Software (SAS Institute Japan, R8.1). The area of atherosclerotic lesion was calculated as the ratio (%) of the area stained by Sudan IV to the area of whole aorta. The mean values±standard deviation were 10.1±4.7% in Control group, 6.6±2.6% in Cilostazol-administered group, 6.2±2.6% in 0.1% Probucol-administered group, 4.7±1.2% in 0.5% Probucol-administered group, 3.8±1.2% in Cilostazol+0.1% Probucol-administered group, and 2.9±1.5% in Cilostazol+0.5% Probucol-administered group.

SMILES strings stand for the structures.

Consider `O=C1CCc2cc(OCCCCc3nnnn3C3CCCCC3)ccc2N1` [Cilostazol, 6-[4-(1-cyclohexyl-1H-tetrazol-5-yl)butoxy]-3,4-dihydrocarbostyril], for which, in assay [1], the “hemispheric cerebral infarct area (in words)” value is given as “marginally reduced”. Also, in assay [2], the “urinary glucose, mean±SD” value turned out to be 11 ± 2 mg/dL and the “effect on plasma glucose” value is listed as “neither Cilostazol nor Probucol showed any effect”. In addition, the “area of atherosclerotic lesion (ratio of Sudan IV stained area to whole aorta), mean±SD” value in assay [3] (0.3% Cilostazol in diet) came out at 6.6±2.6%. In addition, in assay [3], the “inhibition of atherosclerotic lesion (in words)” value is reported as “inhibited the atherosclerotic lesion significantly”.
As to `CC(C)(Sc1cc(C(C)(C)C)c(O)c(C(C)(C)C)c1)Sc1cc(C(C)(C)C)c(O)c(C(C)(C)C)c1` [Probucol, 4,4′-isopropylidenedithiobis[2,6-di-tert-butylphenol]], the “hemispheric cerebral infarct area (in words)” value in assay [1] was “without effect”. For the same compound, the “urinary glucose, mean±SD” value in assay [2] came to 11 ± 3 mg/dL. Besides, the “effect on plasma glucose” value in assay [2] was “neither Cilostazol nor Probucol showed any effect”. Also, the “area of atherosclerotic lesion (ratio of Sudan IV stained area to whole aorta), mean±SD” value is listed as 6.2±2.6% in assay [3] (0.1% Probucol in diet) and 4.7±1.2% in assay [3] (0.5% Probucol in diet). In addition, the “inhibition of atherosclerotic lesion (in words)” value in assay [3] was “inhibited the atherosclerotic lesion significantly”.

Source of the values: patent publication US8580818B2, “Combination drug containing probucol and a tetrazolylalkoxy-dihydrocarbostyril derivative with superoxide supressant effects” (Otsuka Pharmaceutical Co., Ltd., priority 2005, dated 2013).
